Measured values taken from patent US8252748B2, “Peptide derived from neurotensin receptor 3 and use thereof in the treatment of psychiatric diseases” (Centre National de la Recherche Scientifique—CNRS, priority 2007, dated 2012).
No end group written: not given here.

Key:
[1] = test system: mouse (C57Black/J); experiment: Forced swimming test (FST); assay type: in vivo
From the text: The inventors conducted three types of behavioral experiments that are regarded as classical for determining the antidepressant activity of a substance (Nestler E. J., Gould E., Manji H., Buncan M., Duman R. S., Greshenfeld H. K., Hen, R. et al. “Preclinical models: status of basic research in depression” Biol Psychiatry. 15, 503-528 (2002) (20) and Cryan, J. & Holmes, A. “The ascent of mouse: advances in modeling human depression and anxiety” Nat Rev Drug Discov. 4, 775-790 (2005) (21)). The effects of the propeptide of the present invention were compared with those of the saline solution in which it is dissolved and with those of fluoxetine, one of the most-used antidepressants in clinical practice. The mouse strain used is C57Black/J strain. TREK-1^−/− mice were also measured in these various tests.
The propeptide is dissolved in 0.9% NaCl saline solution to the desired concentrations: 10^−5 M, 10^−6 M, 10^−7 M and […]. Different volumes are injected depending on the technique used: • intracerebroventricular: 5 μl • intravenous: 100 μl • intraperitoneal: 100 μl
For the ICV injections, a Hamilton syringe (Fisher Bioblock) (trademark) of 10 μl is used, and in the case of IV or IP injections, a needle of 0.45×12 mm is used.
A. Forced Swimming Test (FST) (Cryan & Holmes, 2005 (21)) […]

[2] = test system: C57BL6/J mice; experiment: Hot plate test of sensitivity to pain; assay type: in vivo, mouse; settings: IV 100 μl at 10^−6 M, 30 minutes after injection
Protocol: Sensitivity to pain was measured with two tests: the hot plate test and the “tail flick” test.
This test consists of measuring the time that a mouse licks its hind paws when it is put on a plate maintained at a given temperature. Two temperatures were used: 50 and 56° C.
(§1) The mice used were C57BL6/J mice. Each group was constituted of 10 mice.
The sensitivity to heat was then measured on the three groups of mice and the results obtained were compared.
(§2) The measurements were taken 30 minutes after injection.
The statistical difference was measured using the one-factor ANOVA test followed by the post-hoc test.

[3] = test system: C57BL6/J mice; experiment: Tail flick test of sensitivity to pain; assay type: in vivo, mouse; settings: bath at 48° C.; 100 μl at 10^−6 M; 30 minutes after injection
Protocol: This test consists of immersing the tail of a mouse in a bath at 48° C. and measuring the time it takes to withdraw it from the bath. Before any injections, a habituation test was carried out on the mouse. It consists of immersing the tail of each animal twice in the bath so as to have homogeneous groups before any treatment (obtaining a reaction time less than 12 seconds). Then the mice were injected with 100 μl of physiological saline solution (“PHYS SALINE”) or 100 μl of peptide of sequence ID No. 2 at a concentration of 10^−6 M (“PE 10^−6M”).
as §1, §2
(§3) The difference was evaluated using the Student t test.

[4] = test system: C57BL6/J mice; experiment: Kainate-induced epileptic seizures; assay type: in vivo, mouse; settings: IP 100 μl at 10^−5 M; kainate 30 mg/kg IP; 90 minutes after kainate; 10 mice per group (5 in saline group)
Protocol: In this experiment, the mice used were C57BL6/J, […], which received an intraperitoneal injection of 100 μl of physiological saline solution and a “PE 10^−5 M” group, in which the mice received an intraperitoneal injection of 100 μl of a solution containing the peptide of the invention at a concentration of 10^−5M. In each of the experimental groups, epileptic seizures were induced by intraperitoneal injection of 100 μl of kainate at a rate of 30 mg/kg. Observation of the stage of epileptic seizure was carried out 90 minutes after injection of kainate. This was based on observation of the behavior of the mice.
The different stages of epileptic seizure are presented in the document of Tsirka S. E., Gualandris, A., Amaral, D. G., Strickland, S. “Excitotoxin-induced neuronal degeneration and seizure are mediated by tissue plasminogen activator”, Nature, 377: 340-344 (1995) (26).
6 stages are defined for describing the intensity of an epileptic attack: • Stage 1: immobility • Stage 2: movements of the head and of the nape • Stage 3: unilateral clonic activity • Stage 4: bilateral clonic activity • Stage 5: generalized convulsions • Stage 6: death of the animal
Statistical analysis was performed by a two-factor ANOVA test followed by the post-hoc test.

[5] = test system: C57BL6/J mice; experiment: Intake of food and drinking water after long-term treatment; assay type: in vivo, mouse; settings: daily IP 100 μl at 10^−5 M for 15 days; 6 and 72 hours after end of treatment
Protocol: The intake of food and of drinking water was also measured. Two experimental groups of C57BL6/J mice (n=10 per group) were used: the first group received an intraperitoneal injection daily for 15 days of 100 μl of physiological saline solution (“PHYS SALINE”), the second group received an intraperitoneal injection daily for 15 days of 100 μl of a solution containing the peptide of sequence ID No. 2 at a concentration of 10^−5M (“PE 10^−5 M”).
These measurements were taken 6 and 72 hours after the end of long-term treatment.
as §3

[6] = test system: hippocampus progenitor cells; experiment: Neurogenesis (BrdU-positive cells) after 4 days of treatment; assay type: in vivo, mouse; settings: PE 10^−5 M
From the text: In contrast to many antidepressants now commonly used, the efficacy of action of the peptide of the invention is very rapid. […] 93: 3908-3913 (1996) (28) and with a considerable decrease in neurogenesis in the dentate gyrus (Gould, E., Tanapat, P., McEwen, B. S., Flugge, G., Fuchs, E. “Proliferation of granule cell precursors in the dentate gyrus of adult monkeys is diminished by stress” Proc Natl Acad Sci USA, 95: 3168-3171 (1998)) (29).
The experimental protocol is that described in the material and methods (Supplement) of the work of Santarelli et al., “Requirement of hippocampal neurogenesis for the behavioral effects of antidepressants” Science, 301: 805-809 (2003) (24) apart from the duration of treatment, which is four days.
The increase was evaluated using the one-factor ANOVA test followed by the post-hoc test.

**Q.** Which “effect on immobility time” value ([1]; ICV, IV or IP injection, 30 min after injection) does the source give for “APLPRWSGPIGVSWGLR [propeptide, APLPRWSGPIGVSWGLR]” here?
**A.** The value was “comparable to those produced by fluoxetine”.

**Q.** And the “crossing of the blood-brain barrier (BBB)” value ([1]; inferred from activity by intravenous or intraperitoneal as well as central route)?
**A.** The value was “easily crosses the blood-brain barrier”.

**Q.** What about the “reaction time on hot plate” value ([2]; 50° C.) of the same sequence?
**A.** The value was 21.1 ± 1.5 s.

**Q.** What about the “reaction time on hot plate” value ([2]; 56° C.) of the same sequence?
**A.** Its value is 4.6 ± 0.9 s.

**Q.** What about the “time to withdraw tail from bath” value [3] of the same sequence?
**A.** The value was 8.3 ± 0.7 s.

**Q.** What about the “number of animals that reached stage 5 (generalized convulsions)” value [4] of the same sequence?
**A.** The value was 2 animals.

**Q.** And the food intake [5]?
**A.** Its food intake is “does not have a significant effect”.

**Q.** And the “intake of drinking water” value [5]?
**A.** Its value is “no significant difference”.

**Q.** And the “neurogenesis relative to physiological saline” value [6]?
**A.** The value was “significant increase in neurogenesis”.
